Results as given in patent US7834024B2, “Compositions and methods for inhibition of the JAK pathway” (Rigel Pharmaceuticals, Inc., priority 2007, dated 2010).
pIC50: −log10 of the molar value. Read-outs that look alike come from different tables or passages of the source.

Assays:
[1] = test system: JAK2 (BaF3 V617F cells, UKE-1); assay: Proliferation Assay (Cell Titer-Glo, 72 hours); assay type: cell-based; conditions: proliferation 72 hours, BaF3 V617F or UKE-1 cells, cell line not given, read-out: Example 7 (IC50)
Experimental: • Dimethyl Sulfoxide (DMSO) (Sigma-Aldrich, Cat No. D2650) (Control) • Iscove's DMEM, ATCC Catalog #30-2005 • 1 M HEPES, Cellgro Catalog #25-060-Cl (100 mL) • 100 mM Sodium Pyruvate, Cellgro Catalog #25-000-Cl (100 mL) • Penicillin/Streptomycin, 10000 U/mL each, Cellgro Catalog #30-002-Cl (100 mL) • RPMI 1640 (Cellgro, Cat No. 10-040-CM) • Fetal Bovine Serum (JRH, Cat No. 12106-500M) • Donor Equine Serum, Hyclone Catalog #SH30074.02 (100 mL) • 50 μM hydrocortisone solution, Sigma Catalog #H6909-10 ml (10 mL) Culture Conditions
BaF3 V617F cells are maintained and plated in RPMI with 10% FBS. Plating density for these cells is 1×10^5 cells/mL.
UKE-1 are maintained and plated in Iscove's DMEM containing 10% FBS, 10% equine serum, 1% penicillin/streptomycin and 1 uM hydrocortisone. Plating density for these cells is 0.4×10^6 cells/mL
The cells were resuspended in a corresponding medium at a required cell density (see above). 100 μ of cell suspension was added to each well of a flat bottom 96 well white plate. The compound was serially diluted in DMSO from 5 mM in 3-fold dilutions, and then diluted 1:250 in the RPMI 1640 medium containing 5% FBS and pen/strep. 100 μL of resulting 2× compound solution was added per well in duplicate and the cells were allowed to proliferate for 72 hours at 37° C.
Proliferation was measured using Cell Titer-Glo. The substrate was thawed and allowed to come to room temperature. After removal of top 100 μL of medium from each well, 100 μL of the premixed Cell Titer-Glo reagent was added to each well. The plates were mixed on an orbital shaker for three minutes to induce lysis and incubated at ambient temperature for an additional five minutes to allow the signal to equilibrate. The Luminescence was read on the Wallac Plate Reader.
The results of the ability of the compounds of the invention to inhibit JAK2 activity, when tested in the above assay, are shown in the following Table IX wherein the level of activity (i.e. the IC50) for each compound is indicated in Table IX. Thae compound numbers in Table IX Refers to the compound disclosed herein as being preparded hy the methods disclosed herein: […]

[2] = test system: Ramos B-Cell Line Stimulated with IL-4 (JAK-1 and JAK-3 / Stat-6, CD23); assay: Assay for Ramos B-Cell Line Stimulated with IL-4 (CD23 upregulation, FACS); assay type: cell-based; conditions: human Ramos B cells, compound 1 hour, IL-4 50 units/mL for 20-24 hours, anti-CD23-PE FACS, read-out: Example 2 (IC50)
Method in brief: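 Human Ramos B cells (5×10^4 per point, RPMI with 5% serum) pre-incubated 1 hour at 37° C with compound or DMSO, then stimulated with IL-4 at 50 units/mL final for 20-24 hours. CD23 upregulation measured by flow cytometry.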

Row | Molecule | pIC50 [1] | pIC50 ([2]; Homo sapiens, Ramos) | pIC50 [2]
1 | Cc1cnc(Nc2cccc(C#N)c2)nc1Nc1ccc2c(c1)NC(=O)CO2 [II-6, N2-(3-Cyanophenyl)-5-methyl-N4-(3-oxo-2H,4H-benzo[1,4]oxazin-6-yl)-2,4-pyrimidinediamine] | 4.17 | 7.16 | 
2 | CNC(=O)COc1cc(Nc2ncc(F)c(Nc3ccc4c(n3)NCC(C)(C)O4)n2)ccc1OC [II-32, N4-(3,4-Dihydro-2,2-dimethyl-2H-5-pyrido[1,4]oxazin-6-yl)-5-fluoro-N2-[4-methoxy-3-(N-methylaminocarbonylmethoxy)phenyl]-2,4-pyrimidinediamine] | 5.96 |  | 7.05
3 | Cc1cnc(Nc2cccc(C(N)=O)c2)nc1Nc1ccc2c(c1)N(C)C(=O)CS2 [II-41, N2-(3-Aminocarbonylphenyl)-N4-(3,4-dihydro-2H-4-methyl-3-oxo-benz[1,4]thiazin-6-yl)-5-methyl-2,4-pyrimidinediamine] | 5.68 |  | 6.89
4 | N#CCOc1cccc(Nc2nc(Nc3ccc(C(N)=O)cc3)ncc2F)c1 [Compound I-44, N2-(4-Aminocarbonylphenyl)-N4-(3-cyanomethoxyphenyl)-5-fluoro-2,4-pyrimidinediamine] | 6.25 | 7.66 | 
5 | 5-Methyl-N2-(I-oxo-1,2,3,4-tetrahydroisoquinolin-7-yl)-N4-[3-oxo-2,2,4-trimethyl-5-pyrido[1,4]oxazin-6-yl]-2,4-pyrimidinediamine [IV-3] | 5.67 |  | 6.64
6 | CN1CCN(c2ccc(Nc3ncc(F)c(Nc4ccc(OCC#N)cc4)n3)cc2C#N)CC1 [Compound I-41, N4-(4-Cyanomethoxyphenyl)-N2-[3-cyano-4-(4-methylpiperazin-1-yl)phenyl]-5-fluoro-2,4-pyrimidinediamine] | 6.41 | 8.47 | 
7 | N2-(3-Aminocabonylphenyl)-N4-(3,4-dihydro-2H-4-methyl-3-oxo-5-pyrido[1,4]oxazin-6-yl)-2,4-pyrimidinediamine [II-42] | 5.79 |  | 6.75
8 | Cc1cnc(Nc2cccc(C(N)=O)c2)nc1Nc1ccc2c(c1)N(C)C(=O)C(C)(C)O2 [II-39, N2-(3-Aminocarbonylphenyl)-5-methyl N4-(2,2,4-trimethyl-3-oxo-benz[1,4]oxazin-6-yl)-2,4-pyrimidinediamine] | 6.26 | 6.79 | 
9 | CNC(=O)COc1cccc(Nc2ncc(C)c(Nc3ccc4c(c3)NC(=O)C(F)(F)O4)n2)c1 [II-49, N4-(2,2-Difluoro-3-oxo[4H]benzo[1,4]oxazin-6-yl)-5-methyl-N2-[3-(N-Methylaminocarbonylmethyleneoxy)phenyl]-2,4-pyrimidinediamine] | 4.78 |  | 7.01
10 | CNC(=O)COc1cc(Nc2ncc(F)c(Nc3ccc4c(c3)NC(=O)C(C)(C)O4)n2)cc(OC)c1OC [II-18, N2-[4,5-Dimethoxy-3-(N-methylaminocarbonylmethyleneoxy)phenyl]-N4-(2,2-dimethyl-3-oxo-benzo[1,4]oxazin-6-yl)-5-fluoro-2,4-pyrimidinediamine] | 6.19 |  | 7.60
11 | CNC(=O)COc1cccc(Nc2ncc(C)c(Nc3ccc4c(c3)N(C)C(=O)CS4)n2)c1 [II-8, 5-Methyl-N2-[3-(N-methylaminocarbonylmethyleneoxy)phenyl]-N4-(4-methyl-3-oxo-2H-benzo[1,4]thiazin-6-yl)-2,4-pyrimidinediamine] | 6.65 |  | 7.25
12 | Cc1cnc(Nc2cccc(C(N)=O)c2)nc1Nc1ccc2c(c1)N(C)C(=O)C(C)(C)S2 [II-45, N2-(3-Aminocarbonylphenyl)-5-methyl-N4-(2,2,4-trimethyl-3-oxo-benz[1,4]thiazin-6-yl)-2,4-pyrimidinediamine] | 6.36 | 6.75 | 
13 | CNC(=O)COc1cc(Nc2ncc(F)c(Nc3ccc4c(n3)NCC(C)(C)O4)n2)cc(OC)c1OC [II-33, N4-(3,4-Dihydro-2,2-dimethyl-4H-5-pyrido[1,4]oxazin-6-yl)-N2-[3,4-dimethoxy-5-(N-methylaminocarbonylmethoxy)phenyl]-5-fluoro-2,4-pyrimidinediamine] | 6.31 |  | 7.12
14 | CNC(=O)COc1cccc(Nc2ncc(C)c(Nc3ccc4c(c3)N(C)C(=O)C(F)(F)O4)n2)c1 [II-37, N4-(2,2-Difluoro-4-methyl-3-oxo-4H-benzo[1,4]oxazin-6-yl)-5-methyl-N2-[3-(N-methylaminocarbonylmethyleneoxy)phenyl]-2,4-pyrimidinediamine] | 6.31 |  | 7.10
15 | CN1CCN(C(=O)c2ccc(Nc3ncc(F)c(Nc4ccc(OCC#N)cc4)n3)cc2)CC1 [Compound I-31, N4-(4-Cyanomethoxyphenyl)-5-fluoro-N2-[4-((4-methylpiperazin-1-yl)carbonyl)phenyl]-2,4-pyrimidinediamine] | 5.90 | 7.21 | 
16 | Cc1cnc(Nc2cccc(C#N)c2)nc1Nc1ccc2c(c1)N(C)C(=O)CS2 [II-7, N2-(3-Cyanophenyl)-5-methyl-N4-(4-methyl-3-oxo-2H-benzo[1,4]thiazin-6-yl)-2,4-pyrimidinediamine] | 5.84 | 6.93 | 
17 | CN1C(=O)C(C)(C)Oc2ccc(Nc3nc(Nc4ccc5c(c4)C(=O)NCC5)ncc3F)nc21 [IV-2, 5-Fluoro-N2-(1-oxo-1,2,3,4-tetrahydroisoquinolin-7-yl)-N4-[3-oxo-2,2,4-trimethyl-5-pyrido[1,4]oxazin-6-yl]-2,4-pyrimidinediamine] | 5.39 | 6.13 | 
18 | Cc1cnc(Nc2cccc(C#N)c2)nc1Nc1ccc2c(c1)N(C)C(=O)CO2 [II-10, N2-(3-Cyanophenyl)-5-methyl-N4-(4-methyl-3-oxo-2H-benzo[1,4]oxazin-6-yl)-2,4-pyrimidinediamine] | 6.01 | 6.93 | 
19 | CNC(=O)COc1cc(Nc2ncc(F)c(Nc3ccc4c(c3)NC(=O)C(C)(C)S4)n2)cc(OC)c1OC [II-17, N2-[4,5-Dimethoxy-3-(N-methylaminocarbonylmethyleneoxy)phenyl]-N4-(2,2-dimethyl-3-oxo-4H-benzo[1,4]thiazin-6-yl)-5-fluoro-2,4-pyrimidinediamine] | 6.79 |  | 7.24
